Results: patent US20080221193A1, “3-AMINO CHROMANE DERIVATIVES” (Wyeth, priority 2006, published 2008)

Experiments:
human 5-HT1A receptors [1] = biological target: T1, human 5-HT1A receptors (Homo sapiens, UniProt P08908); experiment: 8-OH-DPAT binding in CHO cells stably transfected with human 5HT1a receptor; settings: displacement of [3H]8-OH-DPAT, CHO cells with human 5-HT1A; read-out: 5-HT1A Receptor Affinity Ki
T1 construct: expressed in transfected cells; host or cells: CHO cells, stably transfected
T1 sequence (P08908 1-422): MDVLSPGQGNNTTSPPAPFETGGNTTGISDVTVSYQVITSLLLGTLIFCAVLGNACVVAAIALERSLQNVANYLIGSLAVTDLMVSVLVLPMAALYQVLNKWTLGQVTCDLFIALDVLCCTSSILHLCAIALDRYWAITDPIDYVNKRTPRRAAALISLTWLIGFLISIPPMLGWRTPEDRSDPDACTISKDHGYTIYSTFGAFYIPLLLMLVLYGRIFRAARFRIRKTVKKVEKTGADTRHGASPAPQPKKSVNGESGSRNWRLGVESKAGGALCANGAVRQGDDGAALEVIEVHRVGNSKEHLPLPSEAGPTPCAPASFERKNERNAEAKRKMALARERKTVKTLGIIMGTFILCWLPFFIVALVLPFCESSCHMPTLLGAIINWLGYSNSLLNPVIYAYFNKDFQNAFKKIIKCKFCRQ
Procedure: High affinity for the serotonin 5-HT1A receptor was established by testing the claimed compound's ability to displace [^3H] 8-OH-DPAT (dipropylaminotetralin) from the 5-HT1A serotonin receptor following a modification of the procedure of Hall et al., (J. Neurochem., 1985, 44: 1685) which utilizes CHO cells stably transfected with human 5-HT1A receptors.
Stabily transfected CHO cells were grown in DMEM containing 10% heat inactivated FBS and non-essential amino acids. Cells were scraped off the plate, transferred to centrifuge tubes, and washed twice by centrifugation (2000 rpm for 10 min., 4° C.) in buffer (50 mM Tris pH 7.5). The resulting pellets were aliquoted and placed at −80° C. On day of assay, the cells were thawed on ice, and resuspended in buffer. The binding assay was performed in a 96 well microtiter plate in a total volume of […].
Non-specific binding was determined in the presence of […] 5HT, final ligand concentration is 1.5 nM. Following a 30 minute incubation at room temperature, the reaction was terminated by the addition of ice cold buffer and rapid filtration through a GF/B filter presoaked for 30 minutes in 0.5% PEI. Compounds were initially tested in a single point assay to determine percent inhibition at […]. Subsequently, Ki values were determined for compounds defined to be active.

h5-HT Transporter = h5-HT Transporter (Homo sapiens, UniProt P31645); experiment: h5-HT Transporter Function (Table 1); assay type: biochemical
human 5-HT1A receptors [2] = biological target: T1, human 5-HT1A receptors; experiment: 35S-GTPγS binding assay, membranes containing cloned human 5-HT1A receptors; assay type: biochemical; settings: for IC50: read-out: 5-HT1A Function GTPγS IC50
Excerpt: (§1) The agonist or antagonist activity at 5-HT1A receptors was established by using two different assays. The ^35S-GTPγS binding assay similar to that used by Lazareno and Birdsall (Br. J. Pharmacol., 1993, 109: 1120) was used to determine the test compound's ability to affect the binding of ^35S-GTPγS to membranes containing cloned human 5-HT1A receptors. Agonists produce an increase in binding whereas antagonists produce no increase but rather reverse the effects of the standard agonist 8-OH-DPAT. The test compound's maximum stimulatory effect is represented as the Emax, while its potency is defined by the EC50. The test compound's maximum inhibitory effect is represented as the Imax, while its potency is defined by the IC50. The second assay measured cAMP accumulation upon binding of the ligand to the 5-HT1A receptor. Antagonists block the effect of the standard agonist 8-OH-DPAT resulting in an increase in cAMP accumulation while agonists have the reverse effect. The test compound's maximum stimulatory or inhibitory effect is represented as the Emax while its potency is defined by either IC50 for an antagonist or EC50 for an agonist. [^3H]-8-OH-DPAT was used to determine maximum agonist or antagonist response in both functional assays.

h5HT1a receptor = biological target: T2, h5HT1a receptor (Homo sapiens, UniProt P08908); experiment: cAMP RIA in CHO cells stably transfected with the h5HT1a receptor; assay type: cell-based; settings: for EC50: agonist, forskolin-stimulated cAMP, read-out: 5-HT1A Function cAMP EC50; for IC50: antagonist, reversal of agonist 8-OH-DPAT, read-out: 5-HT1A Function cAMP IC50
T2 construct: expressed in transfected cells; host or cells: CHO cells, stably transfected
T2 sequence (P08908 1-422): T1 sequence (P08908 1-422)
Excerpt: as §1
Stabily transfected CHO cells were grown in DMEM containing 10% heat inactivated FBS and non-essential amino acids. The cells were plated at a density of 10(6) cells per well in a 24 well plate and incubated for 2 days in a CO2 incubator. On the second day, the media was replaced with 0.5 ml treatment buffer (DMEM+25 mM HEPES, 5 mM theophylline, 10 uM pargyline) and incubated 10 minutes at 37° C.
Wells were treated with forskolin (1 μM final conc) followed immediately by test compound (0.1 and 1 uM for initial screen) and incubated for an additional 10 min at 37° C. The reaction was terminated by removal of the media and addition of 0.5 ml ice cold assay buffer (supplied in RIA kit). Plates were stored at −20° C. prior to assessment of cAMP formation by RIA.
Compounds shown to have no agonist activities were further analyzed for ability to reverse agonist activity. In separate experiments, 6 concentrations of antagonist were preincubated for 20 minutes prior to the addition of agonist and forskolin. Cells were harvested as described. The cAMP kit was supplied by Amersham and the RIA was performed as per kit instructions.

Chain of h5-HT Transporter (P31645 whole entry): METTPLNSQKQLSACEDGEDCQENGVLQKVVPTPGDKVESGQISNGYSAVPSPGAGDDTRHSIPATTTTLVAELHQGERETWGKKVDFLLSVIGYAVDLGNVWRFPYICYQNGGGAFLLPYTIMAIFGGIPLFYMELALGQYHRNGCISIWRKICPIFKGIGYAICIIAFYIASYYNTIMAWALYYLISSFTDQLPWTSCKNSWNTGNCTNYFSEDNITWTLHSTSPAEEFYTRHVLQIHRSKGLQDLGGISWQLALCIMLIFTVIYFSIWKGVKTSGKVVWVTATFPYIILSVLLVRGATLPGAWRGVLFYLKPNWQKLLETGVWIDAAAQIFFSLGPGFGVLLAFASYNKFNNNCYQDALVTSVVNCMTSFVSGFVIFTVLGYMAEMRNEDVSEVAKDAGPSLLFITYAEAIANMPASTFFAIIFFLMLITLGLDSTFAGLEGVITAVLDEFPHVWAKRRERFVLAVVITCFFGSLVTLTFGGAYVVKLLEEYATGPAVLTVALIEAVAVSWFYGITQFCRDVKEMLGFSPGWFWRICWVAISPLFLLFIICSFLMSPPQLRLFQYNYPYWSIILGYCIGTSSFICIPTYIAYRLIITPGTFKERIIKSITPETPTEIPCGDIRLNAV

| Compound | Ki (human 5-HT1A receptors [1]) [nM] | IC50 (h5-HT Transporter) [nM] | EC50 (human 5-HT1A receptors [2]; agonist potency, read-out: 5-HT1A Function GTPγS EC50) [nM] | EC50 (h5HT1a receptor) [nM] | IC50 (human 5-HT1A receptors [2]) [nM] | IC50 (h5HT1a receptor) [nM] |
| --- | --- | --- | --- | --- | --- | --- |
| COc1ccc(C(N)=O)c2c1OC[C@H](NCCCc1c[nH]c3ccc(F)cc13)C2 [Example 1, (3R)-3-[3-(5-fluoro-1H-indol-3-yl)propyl]amino-8-methoxychromane-5-carboxamide] | 113 | 234 | 489 | 230 |  |  |
| COc1ccc(C(N)=O)c2c1OC[C@H](N(CCCc1c[nH]c3ccc(F)cc13)C1CCC1)C2 [Example 2, (3R)-3-{cyclobutyl[3-(5-fluoro-1H-indol-3-yl)propyl]amino}-8-methoxychromane-5-carboxamide] | 10.4 | 13.2 |  |  | 119 | 92.1 |
| CCOc1ccc(C(N)=O)c2c1OC[C@H](N(CCCc1c[nH]c3ccc(F)cc13)C1CCC1)C2 [Example 3, (3R)-3-{cyclobutyl[3-(5-fluoro-1H-indol-3-yl)propyl]amino}-8-ethoxychromane-5-carboxamide] | 108 | 329 |  |  | 5030 | 768 |
| CCCOc1ccc(C(N)=O)c2c1OC[C@H](N(CCCc1c[nH]c3ccc(F)cc13)C1CCC1)C2 [Example 4, (3R)-3-{cyclobutyl[3-(5-fluoro-1H-indol-3-yl)propyl]amino}-8-propoxychromane-5-carboxamide] | 70.1 | 450 |  | 151 | 684 |  |
| CC(C)Oc1ccc(C(N)=O)c2c1OC[C@H](N(CCCc1c[nH]c3ccc(F)cc13)C1CCC1)C2 [Example 5, (3R)-3-{cyclobutyl[3-(5-fluoro-1H-indol-3-yl)propyl]amino}-8-isopropoxychromane-5-carboxamide] | 35.3 | 214 |  | 118 | 3150 |  |
| NC(=O)c1ccc(O)c2c1C[C@@H](N(CCCc1c[nH]c3ccc(F)cc13)C1CCC1)CO2 [Example 6, (3R)-3-{cyclobutyl[3-(5-fluoro-1H-indol-3-yl)propyl]amino}-8-hydroxychromane-5-carboxamide] | 136 | 347 |  | 312 | 2550 |  |
| COc1ccc(C(N)=O)c2c1OC[C@H](N(CCCc1c[nH]c3ccc(F)cc13)CCC(F)(F)F)C2 [Example 7, (3R)-3-{3,3,3-trifluoropropyl[3-(5-fluoro-1H-indol-3-yl)propyl]amino}-8-methoxychromane-5-carboxamide] | 636 | 2680 |  |  |  |  |
| COc1ccc(C(N)=O)c2c1OC[C@H](N(CCCc1c[nH]c3ccc(F)cc13)CC1CC1)C2 [Example 8, (3R)-3-{cyclopropylmethyl[3-(5-fluoro-1H-indol-3-yl)propyl]amino}-8-methoxychromane-5-carboxamide] | 25.5 | 45.3 |  |  | 442 | 439 |
| CCCN(CCCc1c[nH]c2ccc(F)cc12)[C@H]1COc2c(OC)ccc(C(N)=O)c2C1 [Example 10, (3R)-3-{propyl[3-(5-fluoro-1H-indol-3-yl)propyl]amino}-8-methoxychromane-5-carboxamide] | 20.5 | 8 |  | 186 | 321 |  |
| CCCCN(CCCc1c[nH]c2ccc(F)cc12)[C@H]1COc2c(OC)ccc(C(N)=O)c2C1 [Example 11, (3R)-3-{butyl[3-(5-fluoro-1H-indol-3-yl)propyl]amino}-8-methoxychromane-5-carboxamide] | 98.7 | 279 |  |  | 3030 | 375 |
| COc1ccc(C(N)=O)c2c1OC[C@H](N(CCCc1c[nH]c3ccc(F)cc13)CCCC(F)(F)F)C2 [Example 12, (3R)-3-{4,4,4-trifluorobutyl[3-(5-fluoro-1H-indol-3-yl)propyl]amino}-8-methoxychromane-5-carboxamide] |  | 2580 |  |  |  |  |
| COc1ccc(C(N)=O)c2c1OC[C@H](N(CCCc1c[nH]c3ccc(F)cc13)CC(C)C)C2 [Example 13, (3R)-3-{2-methylpropyl[3-(5-fluoro-1H-indol-3-yl)propyl]amino}-8-methoxychromane-5-carboxamide] | 214 | 339 |  |  | 2950 |  |
| CCN(CCCc1c[nH]c2ccc(F)cc12)[C@H]1COc2c(OC)ccc(C(N)=O)c2C1 [Example 14, (3R)-3-{ethyl[3-(5-fluoro-1H-indol-3-yl)propyl]amino}-8-methoxychromane-5-carboxamide] | 402 | 2.62 |  |  | 1370 |  |
| COc1ccc(C(N)=O)c2c1OC[C@H](N(C)CCCc1c[nH]c3ccc(F)cc13)C2 [Example 15, (3R)-3-{methyl[3-(5-fluoro-1H-indol-3-yl)propyl]amino}-8-methoxychromane-5-carboxamide] | 1700 | 160 |  |  |  |  |
| CNC(=O)c1ccc(OC)c2c1C[C@@H](N(CCCc1c[nH]c3ccc(F)cc13)CCC(F)(F)F)CO2 [Example 17, (3R)-3-{3,3,3-trifluoropropyl[3-(5-fluoro-1H-indol-3-yl)propyl]amino}-8-methoxychromane-5-methylcarboxamide] | 662 | 5540 |  |  |  |  |
| COc1ccc(C(N)=O)c2c1OC[C@H](N(CCCc1c[nH]c3c(F)cc(F)cc13)C1CCC1)C2 [Example 18, (3R)-3-{cyclobutyl[3-(5,7-difluoro-1H-indol-3-yl)propyl]amino}-8-methoxy-chromane-5-carboxamide] | 61.3 | 110 |  |  |  | 94.2 |
| COc1ccc(C(N)=O)c2c1OC[C@H](N(CCCC1CNc3ccc(F)cc31)C1CCC1)C2 (stereo partly drawn) [Example 19, (3R)-3-{cyclobutyl[3-(5-fluoro-1H-indolin-3-yl)propyl]amino}-8-methoxy-chromane-5-carboxamide] | 43.6 | 407 |  |  |  | 99.9 |
| CCSc1ccc(C(N)=O)c2c1OC[C@H](N(CCCc1c[nH]c3ccc(F)cc13)C1CCC1)C2 [Example 23, (3R)-3-{cyclobutyl[3-(5-fluoro-1H-indol-3-yl)propyl]amino}-8-(ethylthio)chromane-5-carboxamide] | 138 | 831 |  |  |  | 137 |
| CN(C)c1ccc(C(N)=O)c2c1OC[C@H](N(CCCc1c[nH]c3ccc(F)cc13)C1CCC1)C2 [Example 24, (3R)-3-{cyclobutyl[3-(5-fluoro-1H-indol-3-yl)propyl]amino}-8-(dimethylamino) chromane-5-carboxamide] | 72.7 | 125 |  |  |  |  |
| (3R)-3-{2-isopropyl[3-(5-fluoro-1H-indol-3-yl)propyl]amino}-8-methoxychromane-5-carboxamide [Example 9] | 515 |  |  |  |  |  |
